Values belong to the molecule of their own block, whether it stands above or below them. Activity calls are given as the source filed them. The rule behind the calls is not given here.
Columns and labels:
Lymphocyte [1] = assay: Antioxidant activity in FRDA patient derived lymphocytes assessed as inhibition of DEM-mediated lipid peroxidation at 0.1 to 2.5 uM pretreated for 16 hrs followed by DEM addition measured after 120 mins by C11-BODIPY581/591 probe-based FACS analysis; format: functional, cell-based; details: Homo sapiens
[2] = Metabolic stability in bovine liver microsomes assessed as compound recovery at 25 uM after 30 mins in presence of beta-NADPH by HPLC method; format: ADME, Bos taurus, microsome; details: cattle, read-out: Drug recovery
Lymphocyte [3] = assay: (§1) Cytoprotective activity against DEM-induced oxidative stress in FRDA patient derived lymphocytes assessed as increase in cell viability at 0.1 to 2.5 uM pretreated for 16 hrs followed by DEM addition measured after 6 hrs by calcein acetoxy-methyl-ester/ethidium homodimer-1 staining-based flow cytometric analysis; format: functional; details: Homo sapiens
Lymphocyte [4] = assay: Cytoprotective activity in DEM-treated FRDA patient derived lymphocytes assessed as preservation of mitochondrial inner membrane potential at 2.5 uM pretreated for 16 hrs followed by DEM addition measured after 120 mins by TMRM dye-based flow cytometric analysis; format: functional, cell-based; details: Homo sapiens
Lymphocyte [5] = assay: Antioxidant activity in FRDA patient derived lymphocytes assessed as inhibition of DEM-mediated reactive oxygen species formation at 0.1 to 2.5 uM pretreated for 16 hrs followed by DEM addition measured after 80 mins by DCFH-DA dye-based flow cytometric analysis; format: functional, cell-based; details: Homo sapiens
Lymphocyte [6] = assay: as §1, with “at” for “at 0.1 to”; format: functional; details: Homo sapiens
Lymphocyte [7] = assay: Antioxidant activity in FRDA patient derived lymphocytes assessed as inhibition of DEM-mediated reactive oxygen species formation at 2.5 uM pretreated for 16 hrs followed by DEM addition measured after 80 mins by DCFH-DA dye-based flow cytometric analysis; format: functional, cell-based; details: Homo sapiens
Lymphocyte [8] = assay: Antioxidant activity in FRDA patient derived lymphocytes assessed as inhibition of DEM-mediated lipid peroxidation at 0.1 to 0.5 uM pretreated for 16 hrs followed by DEM addition measured after 120 mins by C11-BODIPY581/591 probe-based FACS analysis; format: functional, cell-based; details: Homo sapiens
Lymphocyte [9] = assay: Cytoprotective activity in FRDA patient derived lymphocytes cultured in glucose-free media supplemented with galactose assessed as total intracellular ATP levels at 5 uM after 48 hrs by luciferin-luciferase reaction-based bioluminescence assay relative to control; format: functional, Homo sapiens
Lymphocyte [10] = assay: Cytoprotective activity in FRDA patient derived lymphocytes cultured in glucose-free media supplemented with galactose assessed as total intracellular ATP levels at 25 uM after 48 hrs by luciferin-luciferase reaction-based bioluminescence assay relative to control; format: functional, Homo sapiens
Lymphocyte [11] = assay: Cytoprotective activity in FRDA patient derived lymphocytes cultured in glucose-free media supplemented with galactose assessed as total intracellular ATP levels at 1 uM after 48 hrs by luciferin-luciferase reaction-based bioluminescence assay relative to control; format: functional, Homo sapiens
Lymphocyte [12] = assay: Cytoprotective activity in DEM-treated FRDA patient derived lymphocytes assessed as preservation of mitochondrial inner membrane potential at 0.5 uM pretreated for 16 hrs followed by DEM addition measured after 120 mins by TMRM dye-based flow cytometric analysis; format: functional, cell-based; details: Homo sapiens

Compound: Cc1nc(N2CCC2)nc(N2CCC2)c1O
inhibition (Lymphocyte [1]): inactive

Compound: Cc1nc(OC2CCC2)nc(OC2CCC2)c1O
inhibition (Lymphocyte [1]): inactive

Compound: Cc1nc(N2CCC2)nc(OC2CCC2)c1O
inhibition (Lymphocyte [1]): inactive

Compound: CCCCCCCCCCCCCCCCc1nc(N2CCC2)nc(OC2CCC2)c1O
inhibition (Lymphocyte [1]): Active | Activity (Lymphocyte [3]): Active | Activity (Lymphocyte [4]): Active | inhibition (Lymphocyte [5]): Active

Compound: Cc1nc(OC2CCC2)nc(N2CCC2)c1O
inhibition (Lymphocyte [1]): inactive

Compound: COC1=C(OC)C(=O)C(CCCCCCCCCCO)=C(C)C1=O [IDEBENONE]
remaining at 0.5 h, 25 µM [2]: 61% | inhibition (Lymphocyte [1]): Active | Activity (Lymphocyte [9]): 73% | Activity (Lymphocyte [10]): 3% | Activity (Lymphocyte [4]): Active | Activity (Lymphocyte [11]): 98% | Activity (Lymphocyte [12]): Active

Compound: CCCCCCCCCCCCCCc1nc(N2CCC2)nc(N2CCC2)c1O
remaining at 0.5 h, 25 µM [2]: 63% | inhibition (Lymphocyte [1]): inactive | Activity (Lymphocyte [3]): Active | Activity (Lymphocyte [4]): Active

The next lines start with results.

remaining at 0.5 h, 25 µM [2]: 77%
Compound: CCCCCCCCCCCCCCc1nc(OC2CCC2)nc(N2CCC2)c1O
inhibition (Lymphocyte [1]): Active | Activity (Lymphocyte [3]): Active | Activity (Lymphocyte [4]): Active | inhibition (Lymphocyte [5]): Active

remaining at 0.5 h, 25 µM [2]: 63%
Compound: CCCCCCCCCCCCCCCCc1nc(OC2CCC2)nc(N2CCC2)c1O
inhibition (Lymphocyte [1]): Active | Activity (Lymphocyte [3]): Active | Activity (Lymphocyte [4]): Active | inhibition (Lymphocyte [5]): Active

remaining at 0.5 h, 25 µM [2]: 63%
Compound: CCCCCCCCCCCCCCc1nc(N2CCC2)nc(OC2CCC2)c1O
inhibition (Lymphocyte [1]): Active | Activity (Lymphocyte [3]): Active | Activity (Lymphocyte [4]): Active | inhibition (Lymphocyte [5]): Active

remaining at 0.5 h, 25 µM [2]: 60%
Compound: CCCCCCCCCCCCCCCCc1nc(OC2CCC2)nc(OC2CCC2)c1O
inhibition (Lymphocyte [1]): inactive

remaining at 0.5 h, 25 µM [2]: 72%
Compound: CCCCCCCCCCCCCCc1nc(OC2CCC2)nc(OC2CCC2)c1O
inhibition (Lymphocyte [1]): Active | Activity (Lymphocyte [6]): Active | Activity (Lymphocyte [4]): Active | inhibition (Lymphocyte [7]): Active | inhibition (Lymphocyte [8]): inactive

remaining at 0.5 h, 25 µM [2]: 62%
Compound: CCCCCCCCCCCCCCCCc1nc(N2CCC2)nc(N2CCC2)c1O
inhibition (Lymphocyte [1]): inactive | Activity (Lymphocyte [3]): Active | Activity (Lymphocyte [4]): Active

Source: ChEMBL document CHEMBL3997815, “Influence of substituent heteroatoms on the cytoprotective properties of pyrimidinol antioxidants” (Bioorg Med Chem, 2017)
